Measured values as given in patent publication US20110212053A1, “PHOSPHATIDYLINOSITOL 3 KINASE INHIBITORS” (priority 2008, published 2011).

Tests used:
TRKC = TRKC (Homo sapiens, UniProt Q16288); experiment: Radiometric HotSpot kinase assay, TRKC; format: biochemical; settings: 1 μM compound, 10 μM ATP
Protocol: (§1) Kinase Profiling: The inhibitory activity of the PI3K inhibitor compounds of the invention against 250 protein kinases was determined via the radiometric HotSpot Kinase Profiling (Reaction Biology Corporation, Malvern, Pa.). Compounds were profiled at a final concentration of 1 μM compound against recombinant protein kinases in the presence of 10 μM ATP and data were expressed as percent inhibition. IC50 and/or percent inhibition at 1 μM compound values were determined for select compounds against a subset of kinases (MELK, MNK1, MNK2, mTOR, PIM-1. TRKC, and PDGFRα(D842V)).
(§2) Compounds of the invention were assayed against the select kinases using the KinaseGLO assay (MELK) or the radiometric assay (PIM, TRKC, PDGFRα(D842V), MNK1 and mTOR). IC50 values were determined using 8-10 point half-log dose dilutions and calculated via nonlinear regression analysis using Graphpad Prism data analysis software.

PDGFRα(D842V) = PDGFRα(D842V) (Homo sapiens, UniProt P16234, D842V); experiment: Radiometric HotSpot kinase assay, PDGFRα(D842V); format: biochemical
Protocol: as §1, §2

Chain of TRKC (Q16288 32-839): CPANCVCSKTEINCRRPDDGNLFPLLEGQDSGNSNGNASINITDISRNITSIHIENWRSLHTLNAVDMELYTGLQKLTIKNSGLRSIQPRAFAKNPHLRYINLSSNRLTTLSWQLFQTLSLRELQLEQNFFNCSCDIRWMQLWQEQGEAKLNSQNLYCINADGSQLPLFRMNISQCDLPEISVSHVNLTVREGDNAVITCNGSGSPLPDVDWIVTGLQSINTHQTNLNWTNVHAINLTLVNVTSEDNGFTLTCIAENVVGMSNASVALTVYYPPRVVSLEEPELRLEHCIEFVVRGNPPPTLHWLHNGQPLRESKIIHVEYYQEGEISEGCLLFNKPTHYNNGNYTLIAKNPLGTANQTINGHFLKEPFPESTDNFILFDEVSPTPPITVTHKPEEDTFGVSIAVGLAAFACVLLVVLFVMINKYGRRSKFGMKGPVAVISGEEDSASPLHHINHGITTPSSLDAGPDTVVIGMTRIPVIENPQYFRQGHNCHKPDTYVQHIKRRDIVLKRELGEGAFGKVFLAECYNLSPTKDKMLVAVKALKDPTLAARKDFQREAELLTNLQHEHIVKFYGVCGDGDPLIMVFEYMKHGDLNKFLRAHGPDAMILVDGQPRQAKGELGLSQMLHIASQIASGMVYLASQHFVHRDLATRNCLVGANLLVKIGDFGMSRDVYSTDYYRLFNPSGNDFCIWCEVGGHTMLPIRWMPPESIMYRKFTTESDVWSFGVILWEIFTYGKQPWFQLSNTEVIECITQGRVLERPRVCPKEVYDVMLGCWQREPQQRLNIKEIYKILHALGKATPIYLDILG
Chain of PDGFRα(D842V) (P16234 24-1089 D842V): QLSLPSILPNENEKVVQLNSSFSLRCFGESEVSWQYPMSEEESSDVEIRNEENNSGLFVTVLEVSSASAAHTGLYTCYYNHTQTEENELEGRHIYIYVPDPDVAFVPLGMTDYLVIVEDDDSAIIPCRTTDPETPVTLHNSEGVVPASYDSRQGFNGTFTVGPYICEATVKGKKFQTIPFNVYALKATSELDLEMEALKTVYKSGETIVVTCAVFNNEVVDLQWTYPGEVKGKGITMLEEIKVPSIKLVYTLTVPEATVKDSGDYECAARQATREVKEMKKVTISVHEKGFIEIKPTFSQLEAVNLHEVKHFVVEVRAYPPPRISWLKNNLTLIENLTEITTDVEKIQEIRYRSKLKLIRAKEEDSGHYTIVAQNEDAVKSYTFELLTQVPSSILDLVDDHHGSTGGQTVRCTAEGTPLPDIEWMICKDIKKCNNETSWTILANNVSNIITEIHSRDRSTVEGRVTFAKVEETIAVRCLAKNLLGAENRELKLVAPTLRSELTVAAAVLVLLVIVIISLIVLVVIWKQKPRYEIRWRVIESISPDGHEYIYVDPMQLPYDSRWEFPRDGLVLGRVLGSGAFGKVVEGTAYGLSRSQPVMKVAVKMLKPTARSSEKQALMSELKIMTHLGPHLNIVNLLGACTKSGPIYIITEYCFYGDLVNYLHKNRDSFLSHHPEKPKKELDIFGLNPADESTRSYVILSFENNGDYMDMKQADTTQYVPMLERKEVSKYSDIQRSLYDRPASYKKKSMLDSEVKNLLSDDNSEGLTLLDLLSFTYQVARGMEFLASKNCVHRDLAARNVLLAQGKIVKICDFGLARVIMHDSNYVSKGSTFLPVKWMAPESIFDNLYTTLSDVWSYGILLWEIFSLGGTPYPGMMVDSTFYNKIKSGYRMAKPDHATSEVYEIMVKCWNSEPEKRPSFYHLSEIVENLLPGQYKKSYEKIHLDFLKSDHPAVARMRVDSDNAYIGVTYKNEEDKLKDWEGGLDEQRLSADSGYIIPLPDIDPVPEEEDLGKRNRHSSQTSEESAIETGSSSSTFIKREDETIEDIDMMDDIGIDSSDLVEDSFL

Row | inhibition at 1 µM (TRKC) [%] | IC50 (PDGFRα(D842V)) [nM] | Compound
1 | > 80 | > 100 | CC(C)(C#N)c1ccc(-c2n[nH]c3cnc4ccc(-c5ccc6ncccc6c5)cc4c23)cc1 [Compound 1110, 2-methyl-2-(4-(8-(quinolin-6-yl)-3H-pyrazolo[3,4-c]quinolin-1-yl)phenyl)propanenitrile]
2 | > 97 |  | CC(C)(C#N)c1ccc(-c2n[nH]c3cnc4ccc(-c5cccnc5)cc4c23)cc1 [Compound 1107, 2-methyl-2-(4-(8-(pyridin-3-yl)-3H-pyrazolo[3,4-c]quinolin-1-yl)phenyl)propanenitrile]
